Results as given in US20220324815A1, “2-PHENOXY-PYRIMIDINE DERIVATIVES AS HERBICIDAL COMPOUNDS” (SYNGENTA CROP PROTECTION AG, priority 2019, published 2022).

Columns and labels:
Assay type in all cases: in vivo
Conditions in all cases: 250 g/ha unless otherwise stated, evaluated after 13 days, five-point scale
[1] = system: Amaranthus retoflexus (AMARE); assay: Test 1 glasshouse herbicide test, post-emergence application (Table B1)
Method in brief: (§1)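 Score is % phytotoxicity after 13 days, binned 1 (0–20%) to 5 (81–100%). Compound given at 250 g/ha unless stated, as acetone/water (50:50) spray with 0.5% Tween 20, one day post-sowing (pre-emergence) or after 8 days' growth (post-emergence); glasshouse at 24/16 °C day/night, 14 h light, 65% humidity.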

[2] = system: Echinochloa crus-galli (ECHCG); assay: as above
Method in brief: as §1

[3] = system: Ipomoea hederacea (IPOHE); assay: as above
Method in brief: as §1

Setaria faberi (SETFA) [4] = assay: as above
Method in brief: as §1

[5] = system: Amaranthus retoflexus (AMARE); assay: Test 1 glasshouse herbicide test, pre-emergence application (Table B2)
Method in brief: as §1

[6] = system: Echinochloa crus-galli (ECHCG); assay: as above
Method in brief: as §1

[7] = system: Ipomoea hederacea (IPOHE); assay: as above
Method in brief: as §1

Setaria faberi (SETFA) [8] = assay: as above
Method in brief: as §1

Row | SMILES | % phytotoxicity AMARE, post-emergence application [1] | % phytotoxicity ECHCG, post-emergence application [2] | % phytotoxicity IPOHE, post-emergence application [3] | % phytotoxicity SETFA, post-emergence application (Setaria faberi (SETFA) [4]) | % phytotoxicity AMARE, pre-emergence application [5] | % phytotoxicity ECHCG, pre-emergence application [6] | % phytotoxicity IPOHE, pre-emergence application [7] | % phytotoxicity SETFA, pre-emergence application (Setaria faberi (SETFA) [8])
1 | FC(F)CCCSc1c(Cl)cccc1Oc1ncc(Cl)cn1 [Compound A105, 5-chloro-2-[3-chloro-2-(4,4-difluorobutylsulfanyl)phenoxy]pyrimidine] | 5 (5=81 to 100%) | 5 (5=81 to 100%) | 4 (4=61 to 80%) | 5 (5=81 to 100%) | 5 (5=81 to 100%) | 5 (5=81 to 100%) | 4 (4=61 to 80%) | 5 (5=81 to 100%)
2 | N#Cc1cccc(Oc2ncc(Cl)cn2)c1SCCOC(F)(F)F [Compound A106] | 5 (5=81 to 100%) | 5 (5=81 to 100%) | 3 (3=41 to 60%) | 4 (4=61 to 80%) | 5 (5=81 to 100%) | 5 (5=81 to 100%) | 2 (2=21 to 40%) | 5 (5=81 to 100%)
3 | N#Cc1cccc(Oc2ncc(Cl)cn2)c1SCCOCC(F)(F)F [Compound A107] | 5 (5=81 to 100%) | 5 (5=81 to 100%) | 2 (2=21 to 40%) | 4 (4=61 to 80%) | 5 (5=81 to 100%) | 5 (5=81 to 100%) | 3 (3=41 to 60%) | 5 (5=81 to 100%)
4 | N#Cc1cccc(Oc2ncc(Cl)cn2)c1S(=O)(=O)CCOCC(F)(F)F [Compound A108] | 4 (4=61 to 80%) | 1 (1=0 to 20%) | 2 (2=21 to 40%) | 1 (1=0 to 20%) | 5 (5=81 to 100%) | 1 (1=0 to 20%) | 1 (1=0 to 20%) | 1 (1=0 to 20%)
5 | COc1cnc(Oc2cccc(C#N)c2S(=O)(=O)CCCC(F)(F)F)nc1 [Compound A112] | 2 (2=21 to 40%) | 1 (1=0 to 20%) | 2 (2=21 to 40%) | 1 (1=0 to 20%) | 3 (3=41 to 60%) | 1 (1=0 to 20%) | 3 (3=41 to 60%) | 1 (1=0 to 20%)
6 | COc1cnc(Oc2cccc(C#N)c2SCCCC(F)(F)F)nc1 [Compound A113] | 5 (5=81 to 100%) | 3 (3=41 to 60%) | 3 (3=41 to 60%) | 2 (2=21 to 40%) | 5 (5=81 to 100%) | 4 (4=61 to 80%) | 3 (3=41 to 60%) | 2 (2=21 to 40%)
7 | Cc1cnc(Oc2cccc(C#N)c2SCCCC(F)(F)F)nc1 [Compound A114] | 3 (3=41 to 60%) | 4 (4=61 to 80%) | 4 (4=61 to 80%) | 3 (3=41 to 60%) | 5 (5=81 to 100%) | 4 (4=61 to 80%) | 4 (4=61 to 80%) | 4 (4=61 to 80%)
8 | Cc1cnc(Oc2cccc(C#N)c2S(=O)(=O)CCCC(F)(F)F)nc1 [Compound A115] | 4 (4=61 to 80%) | 4 (4=61 to 80%) | 4 (4=61 to 80%) | 3 (3=41 to 60%) | 5 (5=81 to 100%) | 4 (4=61 to 80%) | 5 (5=81 to 100%) | 3 (3=41 to 60%)
9 | N#Cc1cccc(Oc2ncc(Cl)cn2)c1SCCCOC(F)(F)F [Compound A116, 3-(5-chloropyrimidin-2-yl)oxy-2-[3-(trifluoromethoxy)propylsulfanyl]benzonitrile] | 5 (5=81 to 100%) | 4 (4=61 to 80%) | 4 (4=61 to 80%) | 4 (4=61 to 80%) | 5 (5=81 to 100%) | 5 (5=81 to 100%) | 5 (5=81 to 100%) | 5 (5=81 to 100%)
